pIC50: −log10 of the molar value. Where two headings read alike, the source gives them in different places.
Tests used:
CDK9/cyclin T1 = CDK9/cyclin T1 (Homo sapiens (Human), UniProt P50750); assay: In-vitro recombinant kinase assay CDK9/cyclin T1; assay type: biochemical; conditions: Table 2; average of duplicate points
Description: (§1) To evaluate the in-vitro kinase potency of the compounds, they were screened against CDK 2 and CDK9. Kinase assays were performed in 96-well plates using recombinant CDK/cyclins generated at Cyclacel. Ltd Dundee, UK. CDK2 and CDK9 assays were performed in a total volume of 25 μl in assay buffer (25 mM b-glycerophosphate, 20 mM MOPS, 5 mM EGTA, 1 mM DTT and 1 mM NaVO3, pH 7.4), into which were added 2-4 μg of active enzyme with appropriate substrates (purified histone H1 for CDK2/cyclin E, and CDK2/cyclin A, biotinyl-Ahx-(YSPTSPS)4 for CDK9/cyclin T1). […] CDK2 reactions were stopped by addition of 25 μl of 75 mM phosphoric acid, followed by filtration through P81 filterplates (Whatman Polyfiltronics, Kent, UK). For CDK9, the reaction was stopped by addition of 25 μl of 75 mM phosphoric acid, then 5 μl of 10 mg/ml avidin was added to each well and further incubated for 2 min followed by filtration as per CDK2 assay. After washing 3 times with 75 mM orthophosphoric acid, plates were dried, scintillant added and incorporated radioactivity measured in a scintillation counter (TopCount, Packard Instruments, Pangbourne, Berks, UK). Compounds for kinase assay were made up as 10 mM stocks in DMSO and diluted into 10% DMSO in assay buffer.
as §1

[1] = tested on: H460 non-small cell lung cancer (NSCLC) cell line; assay: Alamar blue cytotoxicity assay in H460 NSCLC tumour cell line; assay type: cell-based; conditions: for Fold increase in potency: H460 cellular IC50 compared with seliciclib; for pIC50: H460 cells, 72 hours, average of three independent experiments
Description: In order to determine the cellular potency of the compounds, the cytotoxicity of each compound was determined against the H460 non-small cell lung cancer (NSCLC) cell line. Standard cytotoxicity methods were performed as follows: H460 cells were seeded in 96-well plates appropriately for their doubling time (3000 cells per well) in RPMI media containing 10% FCS and incubated overnight at 37° C., 5% CO2. The media was removed and 100 μl fresh media containing increasing concentrations of appropriate compound was added and the cells incubated for 72 hours at 37° C., 5% CO2. A 10% stock of alamar blue (Roche, Lewes, United Kingdom) was prepared in medium and 100 μl added to the cells which were incubated for 2 hours.

CDK2/cyclin A = CDK2/cyclin A (Homo sapiens (Human), UniProt P24941); assay: In-vitro recombinant kinase assay CDK2/cyclin A; assay type: biochemical
Description: as §1, §1

CDK2/cyclin E = CDK2/cyclin E (Homo sapiens (Human), UniProt P24941); assay: In-vitro recombinant kinase assay CDK2/cyclin E; assay type: biochemical
Description: as §1, §1

CDK1B = CDK1B (Homo sapiens (Human), UniProt P06493); assay: In-vitro kinase assay screen CDK1B (Table 4); assay type: biochemical
[2] = Table 2, average of duplicate points, read-out: CDK2/Cyclin E Average IC50
[3] = Table 2, average of duplicate points, read-out: CDK2/Cyclin A Average IC50
[4] = Table 4, Run 1, read-out: CDK2A Run 1
[5] = Table 4, Run 2, read-out: CDK2A Run 2
[6] = Table 4, Run 1, read-out: CDK2E Run 1
[7] = Table 4, Run 2, read-out: CDK2E Run 2
[8] = Table 4, mean of two runs, read-out: CDK2E Mean
[9] = Table 4, Run 1, read-out: CDK1B Run 1
[10] = Table 4, Run 2, read-out: CDK1B Run 2
[11] = Table 4, mean of two runs, read-out: CDK1B Mean

Sequence of CDK1B (P06493 whole entry): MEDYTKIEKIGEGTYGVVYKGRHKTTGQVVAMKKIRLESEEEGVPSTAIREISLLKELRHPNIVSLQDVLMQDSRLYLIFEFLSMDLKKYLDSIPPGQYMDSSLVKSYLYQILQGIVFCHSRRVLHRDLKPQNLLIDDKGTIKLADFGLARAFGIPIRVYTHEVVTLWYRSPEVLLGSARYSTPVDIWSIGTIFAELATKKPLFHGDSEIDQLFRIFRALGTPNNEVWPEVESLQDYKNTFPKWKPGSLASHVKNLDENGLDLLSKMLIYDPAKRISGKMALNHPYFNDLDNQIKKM
Sequence of CDK1B (P14635 whole entry partner): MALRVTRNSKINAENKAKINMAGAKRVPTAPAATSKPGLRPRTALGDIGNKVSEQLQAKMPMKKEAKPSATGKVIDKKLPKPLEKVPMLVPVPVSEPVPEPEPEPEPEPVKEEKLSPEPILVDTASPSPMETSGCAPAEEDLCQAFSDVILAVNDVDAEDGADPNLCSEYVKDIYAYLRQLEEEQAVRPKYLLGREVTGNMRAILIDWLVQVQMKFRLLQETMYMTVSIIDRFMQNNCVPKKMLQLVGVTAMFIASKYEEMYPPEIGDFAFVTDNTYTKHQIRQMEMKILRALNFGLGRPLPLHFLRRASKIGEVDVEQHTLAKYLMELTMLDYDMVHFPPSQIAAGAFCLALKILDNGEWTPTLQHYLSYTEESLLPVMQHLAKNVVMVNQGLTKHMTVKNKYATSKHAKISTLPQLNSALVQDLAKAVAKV
Sequence of CDK9/cyclin T1 (P50750 whole entry, species assumed): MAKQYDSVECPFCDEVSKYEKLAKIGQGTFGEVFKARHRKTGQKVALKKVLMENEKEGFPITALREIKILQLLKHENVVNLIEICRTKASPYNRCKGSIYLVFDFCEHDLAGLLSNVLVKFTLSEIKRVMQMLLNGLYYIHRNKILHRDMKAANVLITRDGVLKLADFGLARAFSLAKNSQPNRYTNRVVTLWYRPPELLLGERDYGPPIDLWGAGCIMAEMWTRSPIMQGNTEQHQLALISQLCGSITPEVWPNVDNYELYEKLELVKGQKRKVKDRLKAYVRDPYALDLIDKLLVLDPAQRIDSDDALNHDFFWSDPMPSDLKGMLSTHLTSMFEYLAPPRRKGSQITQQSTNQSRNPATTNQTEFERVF
Sequence of CDK9/cyclin T1 (O60563 whole entry partner, species assumed): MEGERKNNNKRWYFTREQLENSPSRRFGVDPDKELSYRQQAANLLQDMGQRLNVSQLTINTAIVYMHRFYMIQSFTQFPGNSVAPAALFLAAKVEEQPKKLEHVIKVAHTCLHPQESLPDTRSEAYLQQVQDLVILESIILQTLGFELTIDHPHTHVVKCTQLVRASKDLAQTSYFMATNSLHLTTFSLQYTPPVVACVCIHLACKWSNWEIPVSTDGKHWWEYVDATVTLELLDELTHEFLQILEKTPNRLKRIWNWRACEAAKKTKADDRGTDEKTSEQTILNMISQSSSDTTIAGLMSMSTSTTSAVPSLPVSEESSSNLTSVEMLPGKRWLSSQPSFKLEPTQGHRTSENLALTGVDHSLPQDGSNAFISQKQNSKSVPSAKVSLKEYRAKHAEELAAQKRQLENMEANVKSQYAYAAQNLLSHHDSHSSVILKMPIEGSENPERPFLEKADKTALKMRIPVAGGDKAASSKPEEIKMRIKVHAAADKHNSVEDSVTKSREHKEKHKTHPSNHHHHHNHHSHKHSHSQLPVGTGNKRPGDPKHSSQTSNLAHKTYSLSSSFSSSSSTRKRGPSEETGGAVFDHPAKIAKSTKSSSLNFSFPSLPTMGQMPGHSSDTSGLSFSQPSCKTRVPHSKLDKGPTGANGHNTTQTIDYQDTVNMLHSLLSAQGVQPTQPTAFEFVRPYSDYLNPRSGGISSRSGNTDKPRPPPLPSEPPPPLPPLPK

pIC50 (CDK9/cyclin T1) | pIC50 (CDK2/cyclin E; [2]) | SMILES | Fold increase in potency [1] | pIC50 ([1]; Homo sapiens, NCI-H460, 72 h) | further results
7.22 | 8.00 | CC[C@H](Nc1nc(NCc2cccc(Cl)c2)c2ncn(C(C)C)c2n1)[C@@H](C)O [[3], 2R,3S-3-(6-(3-Chlorobenzylamino)-9-isopropyl-9H-purin-2-ylamino)pentan-2-ol] | 8.0 | 5.82 | pIC50 (CDK2/cyclin A; [3]): 7.00
7.10 | 7.70 | CC[C@H](Nc1nc(NCc2cccc(F)c2)c2ncn(C(C)C)c2n1)[C@@H](C)O [[4], 2R,3S-3-[6-(3-Fluorobenzylamino)-9-isopropyl-9H-purin-2-ylamino]-pentan-2-ol] | 8.0 | 5.82 | pIC50 (CDK2/cyclin A; [3]): 6.92
5.10 | 6.08 | CC[C@H](Nc1nc(NCc2cccnc2)c2ncn(CC3CC3)c2n1)[C@@H](C)O [[5], 2R,3S-3-(9-(Cyclopropylmethyl)-6-(pyridin-3-ylmethylamino)-9H-purin-2-ylamino)pentan-2-ol] | 0.3 | 4.46 | –
6.57 | 7.30 | CC[C@H](Nc1nc(NC2CC2)c2ncn(C(C)C)c2n1)[C@@H](C)O [[6]] | 7.1 | 5.77 | –
6.42 | 7.40 | CC[C@H](Nc1nc(NCC2CC2)c2ncn(C(C)C)c2n1)[C@@H](C)O [[7], 2R,3S-3-(6-(Cyclopropylmethylamino)-9-isopropyl-9H-purine-2-ylamino)pentan-2-ol] | 5.0 | 5.62 | –
6.30 | 6.80 | CC[C@H](Nc1nc(NC2CCC2)c2ncn(C(C)C)c2n1)[C@@H](C)O [[8], 2R,3S-3-(6-(Cyclobutylamino)-9-isopropyl-9H-purin-2-ylamino)pentan-2-ol] | 4.1 | 5.54 | –
6.21 | 7.40 | CC[C@H](Nc1nc(NCc2ccncc2)c2ncn(C(C)C)c2n1)[C@@H](C)O [[9], 2R,3S-3-(9-Isopropyl-6-(pyridine-4-ylmethylamino)-9H-purin-2-ylamino)pentan-2-ol] | 5.2 | 5.64 | –
5.98 | 7.30 | CC[C@H](Nc1nc(NCc2cc(C)nc(C)c2)c2ncn(C(C)C)c2n1)[C@@H](C)O [[10], 2R,3S-3-(9-Isopropyl-6-(2,6-dimethylpyridine-4-ylmethylamino)-9H-purin-2-ylamino)pentan-2-ol] | 5.0 | 5.62 | –
6.60 | 7.40 | CC[C@H](Nc1nc(NCc2ccc(C(F)(F)F)nc2)c2ncn(C(C)C)c2n1)[C@@H](C)O [[11], 2R,3S-3-(9-Isopropyl-6-((6-(trifluoromethyl)pyridine-3-yl)methylamino)-9H-purin-2-ylamino)pentan-2-ol] | 13.3 | > 6.00 | pIC50 [1]: 6.05
5.69 | 7.30 | CC[C@H](Nc1nc(NCc2cccc(C)n2)c2ncn(C(C)C)c2n1)[C@@H](C)O [[12], 2R,3S-3-(9-Isopropyl-6-((6-methylpyridin-2-yl)methylamino)-9H-purin-2-ylamino)pentan-2-ol] | 1.7 | 5.14 | –
5.23 | 6.11 | CC[C@H](Nc1nc(NCc2ncccc2C)c2ncn(C(C)C)c2n1)[C@@H](C)O [[13], 2R,3S-3-(9-Isopropyl-6-((3-methylpyridin-2-yl)methylamino)-9H-purin-2-ylamino)pentan-2-ol] | 0.6 | 4.71 | –
5.19 | 6.54 | CC(C)n1cnc2c(NCc3cccnc3)nc(NC[C@@H](C)O)nc21 [[14], (R)-1-(9-Isopropyl-6-(pyridin-3-ylmethylamino)-9H-purin-2-ylamino)propan-2-ol] | 0.7 | 4.78 | –
5.13 | 6.24 | CC(C)n1cnc2c(NCc3cccnc3)nc(NCC(O)C(F)(F)F)nc21 (stereo not drawn) [[15], 1,1,1-Trifluoro-3-(9-isopropyl-6-(pyridin-3-ylmethylamino)-9H-purin-2-ylamino)propan-2-ol] | 0.6 | 4.69 | –
5.67 | 7.05 | CCC(Nc1nc(NCc2cccnc2)c2ncn(C(C)C)c2n1)C(O)C(F)(F)F (stereo not drawn) [[16], 1,1,1-Trifluoro-3-(9-isopropyl-6-(pyridin-3-ylmethylamino)-9H-purin-2-ylamino)pentan-2-ol] | 2.9 | 5.39 | –
– | – | CCC(Nc1nc(NCc2ccc(C(F)(F)F)nc2)c2ncn(C(C)C)c2n1)C(O)C(F)(F)F (stereo not drawn) [[17], 1,1,1-Trifluoro-3-(9-isopropyl-6-((6-(trifluoromethyl)pyridin-3-yl)methylamino)-9H-2-ylamino)pentan-2-ol] | – | – | pIC50 (CDK2/cyclin A; [4]): 6.52; pIC50 (CDK2/cyclin A; [5]): 6.37; pIC50 (CDK2/cyclin A; Table 4, mean of two runs, read-out: CDK2A Mean): 6.43; pIC50 (CDK2/cyclin E; [6]): 6.50; pIC50 (CDK2/cyclin E; [7]): 6.51; pIC50 (CDK2/cyclin E; [8]): 6.50; pIC50 (CDK1B; [9]): 5.21; pIC50 (CDK1B; [10]): 4.95; pIC50 (CDK1B; [11]): 5.06
– | – | CC(C)n1cnc2c(NCc3cccnc3)nc(NCC(O)(C(F)(F)F)C(F)(F)F)nc21 [[18], 1,1,1,3,3,3-Hexafluoro-2-((9-isopropyl-6-(pyridine-3-ylmethylamino)-9H-purin-2-ylamino)methyl)propan-2-ol] | – | – | pIC50 (CDK2/cyclin A; [4]): 6.15; pIC50 (CDK2/cyclin A; [5]): 5.92; pIC50 (CDK2/cyclin E; [6]): 6.47; pIC50 (CDK2/cyclin E; [7]): 6.55; pIC50 (CDK2/cyclin E; [8]): 6.51; pIC50 (CDK1B; [9]): 5.23; pIC50 (CDK1B; [10]): 5.17; pIC50 (CDK1B; [11]): 5.20

SMILES | pIC50 (CDK9/cyclin T1) | pIC50 (CDK2/cyclin E; [2]) | Fold increase in potency [1] | pIC50 ([1]; Homo sapiens, NCI-H460, 72 h) | further results
CC[C@H](Nc1nc(NCc2ccc(C)nc2)c2ncn(C(C)C)c2n1)[C@@H](C)O [[2], 2R,3S-3-(9-isopropyl-6-((6-methylpyridin-3-yl)methylamino)-9H-purin-2-ylamino)pentan-2-ol] | 5.44 | 6.28 | 0.3 | 4.46 | pIC50 (CDK2/cyclin A): 5.49

Source: patent publication US8592581B2, “Trisubstituted purine derivatives” (Cyclacel Limited, priority 2007, dated 2013)
